In patent US6210901A, “Specific binding substances for antibodies and their use for immunoassays or vaccines” (Roche Diagnostics GmbH, priority 1994, dated 2001):

Experiments:
[1] = tested on: pancreatin; experiment: HCV core2m stress with pancreatin (protease degradation, analytical HPLC); format: in vitro ADME; details: for Area after 55 min (HPLC peptide peak) / Area after 125 min (HPLC peptide peak): pancreatin c = 1 mg/ml, 50 μl to 200 μl peptide
Excerpt: The protease stability of a binding substance according to the invention can be determined by exposing it to e.g. pancreatin, a mixture of frequently occurring proteases (including carboxy-peptidase A and B, trypsin, pepsin, chymotrypsin, elastase) or pronase (including aminopeptidase, carboxypeptidase, alkaline and neutral proteinase). The reduced enzymatic degradation of the binding substance can be determined by HPLC analysis of the appearance of peptide fragments over time.
Experimental procedure for core2m digestion with pancreatin.
Firstly core2m solutions were prepared in distilled water at an approximate c=1-3 mg/ml. These solutions were injected into the analytical HPLC (injection volume=40 μl).
These solutions were now diluted such that the area had to be […] when injected again into the HPLC. e.g. Area of the core2m IV solution was 600 000 on the analytical HPLC for an injection volume of 40 μl. Now two parts of this solution are diluted with one part of distilled water.
In each case 200 μl of these adjusted core2m solutions were admixed with 50 μl pancreatin solution (c=1 mg/ml).
A sample of these solutions was injected into the analytical HPLC after 55 min and after 125 min. As a reference a 200 μl sample of each core2m solution was admixed with 50 μl distilled water and injected into the analytical HPLC.
The percentage degradation of the respective peptide can be determined from the areas of the peptide peaks in the analytical HPLC.
Core2m solutions were adjusted to HPLC areas of 400 000 in 40 μl
Pancreatin solution c = 1 mg/ml in H2 O
200 μl of the adjusted core2m solution was allowed to react with 50

[2] = tested on: antibodies which are directed against the core-epitope of the HCV virus; experiment: Immunoassay (streptavidin tube, peroxidase/ABTS) with biotinylated peptides; reactivity relative to the natural epitope core2m; format: binding; design: key to serum A rel. reactivity / serum B rel. reactivity: ratio to reference antigen core2m at the same concentration; details: for pos. control rel. reactivity: positive control serum, relative to core2m at same concentration; for serum A rel. reactivity: positive serum A; for serum B rel. reactivity: positive serum B
Experimental: Procedure for an immunoassay using biotinylated binding substances according to the invention against antibodies which are directed against the core-epitope of the HCV virus.
In the binding substances that were used one or several CO--NH peptide binding groups were replaced according to the invention (core2mI-core2mVI)compared to the natural epitope "core2m".
20 μl serum was placed in each case in streptavidin-coated ES 22 tubes from the Boehringer Mannheim Company (negative serum, positive serum, positive sera A-C). Then 1000 μl peptide solution (core 2m or core 2m I-VII concentration 100 ng/ml in potassium phosphate buffer 40 mmol/l, pH 7.0) was added by pipette and allowed to stand for 60 min in an ES 22 instrument from the Boehringer Mannheim Company. After 60 min incubation the peptide/serum solution is removed by pipette and the tubes are washed with test wash solution: 40 mmol/l potassium phosphate buffer, pH 7.0. Then 1000 μl peroxidase conjugate solution (peroxidase conjugated to an anti Fcγ antibody, 0.5 U/ml) is added by pipette and incubated for a further 60 min. The conjugate solution is removed by pipette and the tube is washed with washing solution. Afterwards 1000 μl ABTS solution (1.9 mmol/l) is added by pipette and it is incubated for a further 60 min. After 60 min incubation the solution is pipetted from the tube into a photometer and measured at 405 nm. […] The reactivities are derived from the measured result of the immunoassay relative to a standard curve.
The relative concentration used of the peptide antigens I-VI was derived from their HPLC integrals. The reactivity of the antigens I-VI was determined relative to the reference antigen core2m at the same concentration.

Substance	Area after 55 min (HPLC peptide peak) [1]	Area after 125 min (HPLC peptide peak) [1]	% (percentage resistance towards protease degradation) after 55 min ([1]; pancreatin)	% (percentage resistance towards protease degradation) after 125 min ([1]; pancreatin)	pos. control rel. reactivity [2]	serum A rel. reactivity [2]	serum B rel. reactivity [2]	resistance towards protease degradation ([1]; pancreatin, 55 min and 125 min)	Serum C rel. reactivity ([2]; positive serum C)	binding of the artificial epitopes (in words) ([2]; modified epitopes, Example 1)
Bi-XUZUPQDVKFP4 QIVGG V [core2mIV]	3057359	2715127	90%	80%	0.370	0.250	0.210			
Bi-XUZUPQDVKFPGGGQIVGGV [core2m, reference compound]	0	0	0%	0%	1.140	1.310	1.170	0%	1.140	
Bi-XUZUPQDVKFPGGGQIVI V [core2mI]	3252704	2460332	100%	76%	1.140	0.621	0.959			bind specifically and selectively
